Reference: article PMC11325555, “Interaction of Bisphenol A and Its Analogs with Estrogen and Androgen Receptor from Atlantic Cod (Gadus morhua)” (Environmental Science & Technology, 2024)

Key:
[1] = target: T1, Atlantic cod androgen receptor alpha (gmAra) LBD (Gadus morhua, UniProt D5FIC7); experiment: Luciferase reporter gene assay, gmAra agonism (androgenic activity) in transfected COS-7 cells; conditions: COS-7, monkey, 24 h, read-out: gmAra Emax
T1 sequence (D5FIC7 409-718): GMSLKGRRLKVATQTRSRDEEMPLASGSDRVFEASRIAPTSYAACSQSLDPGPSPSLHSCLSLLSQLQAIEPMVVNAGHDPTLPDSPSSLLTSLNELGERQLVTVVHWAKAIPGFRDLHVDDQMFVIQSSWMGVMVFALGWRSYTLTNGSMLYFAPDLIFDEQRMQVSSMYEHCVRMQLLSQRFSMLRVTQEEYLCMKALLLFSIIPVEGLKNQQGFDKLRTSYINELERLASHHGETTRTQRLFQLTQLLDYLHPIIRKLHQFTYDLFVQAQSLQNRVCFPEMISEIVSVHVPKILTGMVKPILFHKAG
Procedure: (§1) Ligand activation of gmEra and gmAra was studied with a luciferase reporter gene assay in COS-7 cells transiently transfected with the pCMX-GAL4(DBD)-gmEra(LBD) or pCMX-GAL4(DBD)-gmAra(LBD) plasmid by using the TransIT-LT1 reagent (TransIT-LT1 Transfection Reagent, Mirus). Cells were seeded into 96-well plates (5000 cells/well) and incubated for 24 h before cotransfection with the plasmid mixture (100 ng/well). The plasmid mixture contained GAL4-UAS luciferase reporter plasmid (tk-(MH100)x4 luc), the pCMX-GAL4(DBD)-gmEra(LBD) or pCMX-GAL4(DBD)-gmAra(LBD) receptor plasmids (2:1 reporter:receptor plasmid mass ratio), and a plasmid constitutively producing the β-galactosidase enzyme used for normalization of transfection efficiency (pCMV- β-Gal). […] The maximum DMSO/methanol concentrations in the exposure wells were 0.5% (v/v) in DMEM medium without phenol red (Sigma-Aldrich). After exposure, cells were lysed, and luciferase and beta-galactosidase activities were measured as luminescence and absorbance (420 nm) after the addition of luciferin and ONPG substrates, respectively, using an Enspire Multimode plate reader (PerkinElmer, Waltham, Massachusetts, USA).
Figure 3 Androgenic activity of bisphenols. COS-7 cells were transiently transfected with gmAra LBD and exposed individually to 12 bisphenol analogs at increasing concentrations. […] The dose–response curves were created using nonlinear regression and the four-parameter logistic fit in Graphpad Prism v.9. For comparison, the dose–response curve of BPA (black line) is indicated together with each individual BP tested (red line). *p < 0.05 versus solvent control by one-way ANOVA and Dunnett’s multiple comparison post hoc test.

[2] = target: T2, Atlantic cod estrogen receptor alpha (gmEra) LBD (Gadus morhua, UniProt U5ILH7); experiment: Luciferase reporter gene assay, gmEra antagonism (antiestrogenic activity), coexposure with 3 nM EE2; assay type: cell-based; conditions: coexposure with EE2 (3 nM, EC20)
T2 sequence (U5ILH7 170-455): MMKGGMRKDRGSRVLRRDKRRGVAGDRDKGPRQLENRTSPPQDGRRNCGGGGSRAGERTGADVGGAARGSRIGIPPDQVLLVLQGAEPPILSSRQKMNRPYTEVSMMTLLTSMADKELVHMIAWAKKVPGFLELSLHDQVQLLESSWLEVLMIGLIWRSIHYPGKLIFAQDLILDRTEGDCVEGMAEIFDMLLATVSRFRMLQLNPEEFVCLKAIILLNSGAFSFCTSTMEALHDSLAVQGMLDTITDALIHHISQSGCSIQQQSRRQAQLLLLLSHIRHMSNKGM
Procedure: as §1
To investigate potential antiestrogenic effects, COS-7 cells transiently expressing gmEra LBD were exposed to the 12 bisphenols in binary mixtures with a fixed concentration of EE2 (3 nM, corresponding to EC20) (Figure 2 and Table 1).
(§2) The dose–response curves were created using nonlinear regression and the four-parameter logistic fit in Graphpad Prism v.9. *p < 0.05 versus solvent control by ANOVA and Dunnett’s multiple comparison post hoc test.

[3] = target: T1, Atlantic cod androgen receptor alpha (gmAra) LBD; experiment: Luciferase reporter gene assay, gmAra antagonism (antiandrogenic activity), coexposure with 5 nM testosterone; assay type: cell-based; conditions: BPs 0.003–50 μM with 5 nM testosterone
Procedure: as §1, §2

[4] = tested on: Atlantic cod precision-cut liver slices (PCLS); experiment: PCLS viability, lactate dehydrogenase (LDH) assay; assay type: cell-based, Atlantic cod (Gadus morhua); conditions: 1µM; 96 h exposure
Procedure: To monitor the viability of the liver tissue, the release of LDH to the medium was quantified with an LDH Cytotoxicity Detection kit (Roche, Basel, Switzerland) according to the manufacturer’s protocol. Briefly, 50 μL of PCLS medium collected at the end of 96 h exposure was pipetted in triplicates into a clear 96-well plate, 50 μL of provided reagent mixture with the substrate was added, and the mixture was incubated for 10 min at room temperature in the dark. Absorbance was measured at 490 nm using an EnSpire plate reader (PerkinElmer, Waltham, USA), with 650 nm reference measurement. The LDH activity was normalized to the liver tissue weight, and statistical analysis was performed as described above for the ELISA data.
Figure S3. Assessment of PCLS tissue viability in BP-treated and DMSO control groups. Data points represent mean ± SD of fold-changes (normalized to DMSO) in LDH activity (in the culture medium) per mg of tissue (n = 5-6). For each compound, increasing concentrations used are arranged bottom up vertically (y-axis), […]
starting with DMSO control. […]
in comparisons between the different concentrations and the corresponding DMSO control. One treatment group […]
Figure S4. Sequence alignment of ligand binding domain of gmEra and hsERa. Alignment was constructed in Jalview using Clustal with default settings. […]

Compound	maximal fold induction [1]	antiestrogenic effect on gmEra, result in words [2]	effect on testosterone-mediated gmAra activity, result in words [3]	LDH activity in PCLS culture medium vs DMSO control, result in words [4]
CC(C)(c1ccc(OCC2CO2)cc1)c1ccc(OCC2CO2)cc1 (centres unmarked) [BADGE]	1	no antiestrogenic effects	–	–
Oc1ccc(C2(c3ccc(O)cc3)c3ccccc3-c3ccccc32)cc1 [BPFL]	1.3	–	significant increases in gmAr activity	significantly lower LDH activity
